Tests used:
Format in all cases: in vivo
[1] = test system: vetch aphid (Megoura viciae); assay: control of vetch aphid on broad bean leaf disks, 24-well microtiter plates; details: sprayed on leaf disks, mortality and fecundity after 5 days
Experimental: (§1) The analysis of synergism or antagonism between the mixtures or compositions was determined using Colby's equation.
For evaluating control of vetch aphid (Megoura viciae) through contact or systemic means the test unit consisted of 24-well-microtiter plates containing broad bean leaf disks.
The compounds or mixtures were formulated using a solution containing 75% water and 25% DMSO. Different concentrations of formulated compounds or mixtures were sprayed onto the leaf disks at 2.5 μl, using a custom built micro atomizer, at two replications.
(§2) For experimental mixtures in these tests identical volumes of both mixing partners at the desired concentrations respectively, were mixed together.
After application, the leaf disks were air-dried and 5-8 adult aphids placed on the leaf disks inside the microtiter plate wells. The aphids were then allowed to suck on the treated leaf disks and incubated at 23±1° C., 50±5% RH for 5 days. Aphid mortality and fecundity was then visually assessed.
In this test the compound 1-2, and N-(3′,4′-dichloro-5-fluorobiphenyl-2-yl)-3-difluoromethyl-1-methylpyrazole-4-carboxamide (compound 2.1) and 5-chloro-7-(4-methyl-piperidin-1-yl)-6-(2,4,6-trifluorophenyl)-[1,2,4]triazolo[1,5-a]pyrimidine (compound 2.2) were used.

[2] = test system: tobacco budworm (Heliothis virescens); assay: control of tobacco budworm, insect diet with eggs, 96-well microtiter plates; details: sprayed on insect diet, egg and larval mortality after 5 days
Experimental: as §1
For evaluating control of tobacco budworm (Heliothis virescens) the test unit consisted of 96-well-microtiter plates containing an insect diet and 15-25 H. virescens eggs. The compounds or mixtures were formulated using a solution containing 75% water and 25% DMSO. Different concentrations of formulated compounds or mixtures were sprayed onto the insect diet at 10 μl, using a custom built micro atomizer, at two replications.
as §2
After application, microtiter plates were incubated at 28±1° C., 80±5% RH for 5 days. Egg and larval mortality was then visually assessed.
In this test the compound I-2, and prochloraz, and pyraclostrobin, resp., were used.

[3] = test system: boll weevil (Anthonomus grandis); assay: control of boll weevil, insect diet with eggs, 24-well microtiter plates; details: sprayed on insect diet, egg and larval mortality after 5 days
Experimental: as §1
For evaluating control of boll weevil (Anthonomus grandis) the test unit consisted of 24-well-microtiter plates containing an insect diet and 20-30 A. grandis eggs.
The compounds or mixtures were formulated using a solution containing 75% water and 25% DMSO. Different concentrations of formulated compounds or mixtures were sprayed onto the insect diet at 20 μl, using a custom built micro atomizer, at two replications.
as §2
After application, microtiter plates were incubated at 23±1° C., 50±5% RH for 5 days. Egg and larval mortality was then visually assessed.
In this test the compound 1-2, and prochloraz, pyraclostrobin, N-[2-(1,1,2,3,3,3-hexafluoropropoxy)-phenyl]-3-difluoromethyl-1-methyl-1H-pyrazole-4-carboxamide (compound 3.1), and N-(3′,4′,5′-trifluorobiphenyl-2-yl)-1-methyl-3-difluoromethyl-1H-pyrazole-4-carboxamide (compound 3.2), resp., were used.

[4] = test system: green peach aphid (Myzus persicae); assay: control of green peach aphid through systemic means, artificial diet under membrane; details: pipetted into aphid diet, mortality and fecundity after 3 days
Experimental: as §1
For evaluating control of green peach aphid (Myzus persicae) through systemic means the test unit consisted of 96-well-microtiter plates containing liquid artificial diet under an artificial membrane.
The compounds or mixtures were formulated using a solution containing 75% water and 25% DMSO. Different concentrations of formulated compounds or mixtures were pipetted into the aphid diet, using a custom built pipetter, at two replications.
as §2
After application, 5-8 adult aphids were placed on the artificial membrane inside the microtiter plate wells. The aphids were then allowed to suck on the treated aphid diet and incubated at 23±1° C., 50±5% RH for 3 days. Aphid mortality and fecundity was then visually assessed.
In this test the compound 1-2, and orysastrobin, and 5-chloro-7-(4-methylpiperidin-1-yl)-6-(2,4,6-trifluorophenyl)-[1,2,4]triazolo[1,5-a]pyrimidine (compound 2.2), and N-[2-(1,1,2,3,3,3-hexafluoropropoxy)-phenyl]-3-difluoromethyl-1-methyl-1H-pyrazole-4-carboxamide (compound 3.1), were used.

Cn1cc(C(=O)Nc2ccc(F)cc2-c2ccc(Cl)c(Cl)c2)c(C(F)F)n1 [compound 2.1, N-(3′,4′-dichloro-5-fluorobiphenyl-2-yl)-3-difluoromethyl-1-methylpyrazole-4-carboxamide]
Average Control % ([1]; 1000 ppm): 0%

COC(=O)N(OC)c1ccccc1COc1ccn(-c2ccc(Cl)cc2)n1 [pyraclostrobin, methyl N-{2-[1-(4-chlorophenyl)-1/pyrazol-3-yloxymethyl]phenyl}(N-methoxy)carbamate]
Average Control % ([2]; 200 ppm): 0%
Average Control % ([3]; 40 ppm): 0%
Average Control % ([4]; 8 ppm): 0%

Cn1cc(C(=O)Nc2ccccc2-c2cc(F)c(F)c(F)c2)c(C(F)F)n1 [compound 3.2, N-(3′,4′,5′-trifluorobiphenyl-2-yl)-1-methyl-3-difluoromethyl-1H-pyrazole-4-carboxamide]
Average Control % ([3]; 200 ppm): 0%

CNC(=O)/C(=N/OC)c1ccccc1CO/N=C(C)/C(=N/OC)C(/C)=N/OC [orysastrobin, (2E)-2-(methoxyimino)-2-{2-[(3E,5E,6E)-5-(methoxyimino)-4,6-dimethyl-2,8-dioxa-3,7-diazanona-3,6-dien-1-yl]phenyl}-N-methylacetamide]
Average Control % ([4]; 40 ppm): 0%

CNC(=O)c1cc(C#N)cc(C)c1NC(=O)c1cc(Br)nn1-c1ncccc1Cl [I-2]
Average Control % ([2]; 0.5 ppm): 0%
Average Control % ([2]; 2.5 ppm): 37.5%
Average Control % ([3]; 0.5 ppm): 0%
Average Control % ([4]; 0.5 ppm): 0%
Average Control % ([1]; 0.5 ppm): 0%
Average Control % ([1]; 2.5 ppm): 0%
